Data on 46 compounds can be found in ChEMBL document CHEMBL1201862, “PubChem BioAssay data set” (2004).

Among the test systems are BT-549; DLD-1; DMS-114; KM-20L2; LXFL 529; M19-MEL; HOP-18; SNB-78.
Common to all, as to test: NCI tumour cell line growth inhibition, 48 h

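Where inhibition never reached the appropriate level, the endpoint shown equals the highest concentration tested. Otherwise, values were interpolated linearly from a five-concentration, 48-hour dose response in 96-well plates. GI50: concentration for 50% inhibition of growth.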 Calls of active or inactive are those of the source. Rule as the data show it: active = GI50 up to about 1.1 µM and inactive = higher.

With `COC1C(OC(C)=O)CC(=O)OC(C)C/C=C/C=C\C(O)C(C)CC(CC=O)C1OC1OC(C)C(OC2CC(C)(O)C(OC(=O)CC(C)C)C(C)O2)C(N(C)C)C1O` (configuration not stated), the GI50 with BT-549 was > 100 µM (inactive). For `CCOC(=O)C1=C(C)N(NC(N)=O)C2(N)N(NC(N)=O)C(C)=C(C(=O)OCC)C12C(=O)OCC` (configuration not stated), the GI50 with DLD-1, in the assay with DMS-114, with KM-20L2, in the assay on LXFL 529 and in the assay with M19-MEL was > 100 µM (inactive) throughout. On to `Cc1ccc2c(c1)OC1Nc3ccccc3C1=C2O` (configuration not stated), for which the GI50 in the assay on BT-549 is 19.7 µM (inactive). Consider `N#CCCN(CCC#N)c1ccc(/C=C2\N=C(c3ccccc3)N(c3ccc(Cl)cc3)C2=O)cc1`, for which the GI50 in the assay with BT-549 was > 100 µM (inactive). For `COc1ccccc1C1SCC(=O)N1c1ccc(-n2c(-c3ccccc3)nc3ccccc3c2=O)cc1` (configuration not stated), in the assay on BT-549, the GI50 is > 100 µM (inactive).

For the compound `CC(C)COC(=O)N1N=NC2C3OC(CC3=O)C21` (configuration not stated), the GI50 in the assay on DLD-1, in the assay with DMS-114, with HOP-18, in the assay with KM-20L2, with LXFL 529 and in the assay on M19-MEL was > 100 µM (inactive) throughout. As for `CSC1=C(C(=O)Nc2ccc(Cl)cc2)C(N)=NC1=O`, in the assay with BT-549, the GI50 is > 100 µM (inactive).

Take `Nc1c(O)c(C(=O)O)cc2ccccc12`: the GI50 in the assay with BT-549 was 21.3 µM (inactive). For the compound `COC(=O)C1=C(C(=O)OC)SC2(S1)C(C(=O)OC)=C(C(=O)OC)Sc1c2ssc1=O`, the GI50 in the assay on BT-549 is 1.5 µM (inactive). On to `Cc1c2cc[n+](C)c(C)c2cc2c1[nH]c1ccccc12`, for which the GI50 is 2.44 µM (inactive) in the assay with BT-549; 10.5 µM (inactive) in the assay on DLD-1; 1.57 µM (inactive) with DMS-114; 0.586 µM (active) in the assay on HOP-18; 4.99 µM (inactive) in the assay with KM-20L2; 3.44 µM (inactive) in the assay with M19-MEL. Besides, the GI50 in the assay with SNB-78 is 5.05 µM (inactive).

For `CC(C)=C1C(=O)C[C@]2(C)C/C=C(\C)CC/C=C(\C)CC[C@@H]12`, the GI50 with BT-549 was 10.9 µM (inactive). Regarding `COc1ccc(C(O)c2ccc3c(c2)OCO3)cc1` (configuration not stated), in the assay on BT-549, the GI50 is > 100 µM (inactive).

Take `CN1CCCCC1CCN1c2ccccc2Sc2ccc([S+](C)[O-])cc21` (configuration not stated) [MESORIDAZINE]: the GI50 with BT-549 is > 100 µM (inactive). Take `O=C(NC12CC3CC(CC(C3)C1)C2)C(=O)c1c[nH]c2ccc([N+](=O)[O-])cc12`: the GI50 with DMS-114 is 43.9 µM (inactive); in the assay with HOP-18, 28.6 µM (inactive); in the assay with KM-20L2 it was 36.5 µM (inactive); in the assay on LXFL 529, 20.2 µM (inactive); in the assay with M19-MEL, 60 µM (inactive). For the compound `CC(N/N=N/c1ccc(-c2nc3ccccc3[nH]2)cc1)C(=O)O` (configuration not stated), the GI50 in the assay on BT-549 is 3.73 µM (inactive). For the compound `Cc1cc2c(cc1N)C(C)C1(CCC(=O)N2Cc2ccccc2)OCCO1` (configuration not stated), the GI50 in the assay with BT-549 was > 100 µM (inactive). Take `COc1ccc(/N=N/C(=O)NC(CC(C)C)C(=O)NC(Cc2ccccc2)C(=O)O)cc1` (configuration not stated): the GI50 in the assay with BT-549 was > 100 µM (inactive). On to `COc1ccc(/C=C2\C(=O)N(C(=O)c3ccc(NC(C)=O)cc3)N=C2C)cc1OC`, for which the GI50 was > 100 µM (inactive) in the assay with DLD-1; > 100 µM (inactive) in the assay on DMS-114; 14.6 µM (inactive) with HOP-18; > 100 µM (inactive) with M19-MEL; > 100 µM (inactive) in the assay on SNB-78. For `CCN1CC2=C(NC(=S)NC2c2ccc(Cl)cc2)/C(=C/c2ccc(Cl)cc2)C1` (configuration not stated), the GI50 with BT-549 was > 100 µM (inactive). As to `CCC1c2[nH]c3ccccc3c2C[C@H]2C(=O)NC(CCC(=O)OC(C)(C)C)C(=O)N12` (some centres not stated), the GI50 with BT-549 is 53.3 µM (inactive). As to `O=C(Nc1nnn[nH]1)c1nc(O)cc(-c2ccccc2)n1`, the GI50 with DLD-1, in the assay on DMS-114, in the assay with KM-20L2, with LXFL 529, with M19-MEL and in the assay on SNB-78 was > 100 µM (inactive) each time. `Cc1cc(N(CCC#N)S(=O)(=O)c2ccccc2)ccc1/C=C1N=C(/C=C/c2ccccc2)OC\1=O`: the GI50 in the assay with DLD-1 was > 100 µM (inactive); in the assay with DMS-114, 94.4 µM (inactive); with KM-20L2, > 100 µM (inactive); in the assay with LXFL 529, 87.3 µM (inactive); in the assay on SNB-78, 80.5 µM (inactive).

For the compound `CC(=O)OCc1cc(OC(C)=O)c2cc3c(OC(C)=O)cccc3c(OC(C)=O)c2c1`, the GI50 in the assay with BT-549 was 20.1 µM (inactive). With `O=[N+]([O-])c1nccn1COCCBr`, the GI50 in the assay on DLD-1, with DMS-114, with KM-20L2, in the assay with LXFL 529 and with M19-MEL was > 100 µM (inactive) in each case. Take `O=C(O)CNC(=O)c1c2ccccc2nc2ccccc12`: the GI50 in the assay with BT-549 was 20.8 µM (inactive). Regarding `CC[C@@H]1CSC(/C=C/C2OC3OC(C)(C)OC3C3OC(C)(C)OC23)=N1` (some centres not stated), the GI50 in the assay on BT-549 was 3.58 µM (inactive). `Cc1cc(=O)nc(Sc2ccc([N+](=O)[O-])cc2[N+](=O)[O-])[nH]1`: the GI50 with BT-549 was 12.8 µM (inactive). For `COc1cc2c(NCCCCCO)ncnc2c(OC)c1OC`, the GI50 in the assay with BT-549 is > 100 µM (inactive). The same measure, in the same setting: the same measure for `COc1ccc(/N=N/C(=O)NC(Cc2ccccc2)C(=O)O)cc1` (configuration not stated): > 100 µM (inactive).

Consider `C/C(=N\NC(=O)C[n+]1ccccc1)c1sc(-c2nc(C)c(/C(C)=N/NC(=O)C[n+]3ccccc3)s2)nc1C`, for which the GI50 with DLD-1 was > 100 µM (inactive); in the assay on DMS-114, 38.3 µM (inactive); in the assay on KM-20L2 it was > 100 µM (inactive); in the assay on LXFL 529 it was 95.9 µM (inactive); in the assay with M19-MEL, > 100 µM (inactive); with SNB-78, > 100 µM (inactive). Turning to `CC(/C=N/N=C1NCCCN1)=N\N=C1NCCCN1`, the GI50 in the assay with BT-549 is > 100 µM (inactive). With `O=C(c1ccncc1)C1C(=O)c2ccccc2C1C1(O)c2ccccc2CC1C(O)c1ccncc1` (configuration not stated), in the assay on BT-549, the GI50 was 45.9 µM (inactive). In the case of `O=C(COc1ccc(OCC(=O)N/N=C/c2ccc(-c3ccc(Cl)cc3Cl)o2)c(Cl)c1)N/N=C/c1ccc(-c2ccc(Cl)cc2Cl)o1`, in the assay with BT-549, the GI50 was 83.9 µM (inactive).

Take `COc1c2occc2c(OC)c2c(=O)c(S(=O)(=O)NC(=O)Nc3ccc(Cl)cc3)coc12`: the GI50 in the assay with BT-549 is > 10 µM (inactive).

On to `CC(C)C[C@H]1[C@@H](OCc2ccccc2)COS(=O)(=O)N1[C@H](C)c1ccccc1`, for which the GI50 in the assay on BT-549 is > 58.2 µM (inactive). Consider `N#Cc1c(-c2ccccc2)c(/C=N/c2ccc(Cl)cc2)c(=O)n2c1[nH]c1ccccc12`, for which, in the assay on BT-549, the GI50 is > 100 µM (inactive).

Turning to `CC(C)(NC(=O)OCc1ccccc1)C(=O)OC(=O)C(C)(C)NC(=O)OCc1ccccc1`, the GI50 in the assay with BT-549 is > 100 µM (inactive). As to `CN(C)CCn1c2c(c3ccccc31)CCc1ccccc1-2`, in the assay on BT-549, the GI50 was 14.5 µM (inactive). On to `O=C(CCC(=O)c1ccsc1)c1ccsc1`, for which the GI50 in the assay on BT-549 is > 100 µM (inactive). On the same count and under the same terms, for `C=C(C)C12CC3CC/C(=N/O)C(C1)C3(N1CCOCC1)C/C2=N/O` (configuration not stated) the value was > 100 µM (inactive); for `O=C1c2ccccc2C(=O)N1C(=S)c1ccccc1`, > 100 µM (inactive); for `c1ccc2nn(C3CCCO3)nc2c1` (configuration not stated), > 100 µM (inactive). Still for that read-out and setting: the same measure for `O=P(Nc1ccccc1)(Oc1ccccc1)N1CCN(c2ccccc2)CC1` (configuration not stated): 16 µM (inactive); for `CCOC(=O)CSc1nc2ccccc2c(=O)n1N`: > 100 µM (inactive); for `NNC(=O)c1nnn(CCc2ccccc2)c1C(=O)NN`: > 100 µM (inactive).

With `CC(=O)C1C(=O)C(=O)N(c2ccccc2)C1=O` (configuration not stated), the GI50 in the assay on BT-549 was > 100 µM (inactive).
